{"source": "patent US20140044759A1", "about": "“DRUG SUBSTANCES, PHARMACEUTICAL COMPOSITIONS AND METHODS FOR PREPARING THE SAME” (priority 2011, published 2014)", "type_in_all_cases": "physicochemical", "key": {"[1]": {"test": "BET specific surface area by nitrogen adsorption (TRISTAR 2000)", "conditions": "for BET specific surface area, effect of slurry composition: external T=18 °C, FIG. 10", "excerpt": "Through these tests, it was established that drug substance Brunnauer-Emmett-Teller specific surface area (“BET specific surface area” or “BET SSA”) in a particular range is desirable to obtain desirable dissolution properties in the final product. BET specific surface area can be measured by physical adsorption methods known to one of skill in the art. All measurements described herein were made on a TRISTAR 2000 instrument (MICROMERITICS, Norcross, Ga.) using the nitrogen adsorption method, as described in Webb, P. A., “Surface Area, Porosity, and Related Physical Characteristics,” in PHARMACEUTICAL DOSAGE FORMS: TABLETS, VOLUME 3: MANUFACTURE AND PROCESS CONTROL 277-302 (eds. L. Augsburger & S. W. Hoag Informa Healthcare USA Inc. 2008). In the nitrogen absorption method, a tube containing a solid sample is preconditioned at a certain temperature for a predetermined amount of time to remove gases/vapors adsorbed on the surface of the solids. For the examples described herein, the equilibration temperature was 30° C., and the time was 16 hours. The tube is then placed into the instrument and evacuated. After evacuation, the tube is submerged into liquid nitrogen, and a known amount of nitrogen (N2) gas is introduced in the tube by means of a control valve. The N2 gas expands and fills the free volume of the tube. The pressure P of the tube will become equal to nRT/V, where n is the number of N2 gas molecules introduced in the sample tube, R is the universal gas constant, T is the absolute temperature and V is the tube free volume. By repeating the evacuation and filling procedure for different amounts of N2 gas, a BET isotherm curve can be obtained, and the BET specific surface area of the solids can be calculated from the slope of the BET curve, as described in Webb (supra)."}, "[2]": {"test": "Dissolution testing of drug product, USP Dissolution Apparatus 2 (paddle)", "conditions": "45 minutes; drug substance BET SSA 12.06 m^2/g", "method": "The resulting drug products were subjected to dissolution testing in a USP Dissolution Apparatus 2 (DISTEK, New Brunswick, N.J.), equipped with a paddle (see United States Pharmacopeia (USP) General Chapter 711 Dissolution). 50 millimoles of phosphate buffer (pH=6.8) containing 0.1% sodium dodecyl sulphate was used. Testing was performed at physiological temperatures (37.0° C.±0.5° C.)."}, "[3]": {"test": "Bulk and tap density of drug substance powder (morphology study)", "method": "A solution of the product of Example 1, Procedure A2 (608.5 g) dissolved in MTBE (2450 mL) was prepared. The solution was added into the mixing chamber at a rate of 840 mL/min and combined with n-heptane flowing at a rate of 3400 mL/min to form a slurry. The precipitation temperature was controlled at 20° C. After precipitation, one sample was filtered at 20° C. and a second sample was heated to 50° C. at a rate of 1° C./min. The drug substance particle morphology was examined by Scanning Electron Microscopy (SEM); images of the particles are provided as FIGS. 7A and 7B, respectively.\nThe difference in morphology between the two […] samples is readily apparent. The sample filtered at 20° C., shown in FIG. 7A, retained the particle morphology obtained during precipitation. The sample heated to 50° C., shown in FIG. 7B, consists of particles that are fused together; some particles look melted. The particles having different morphologies also had differences in drug substance physical attributes."}, "[4]": {"conditions": "Example 8, equilibration temperature 20 °C (filtered at 20 °C)"}, "[5]": {"conditions": "Example 8, equilibration temperature 50 °C (heated to 50 °C at 1 °C/min)"}, "[6]": {"conditions": "aging process, sample: After 1% of batch distilled"}, "[7]": {"conditions": "aging process, sample: After 2% of batch distilled"}, "[8]": {"conditions": "aging process, sample: After 4% of batch distilled"}, "[9]": {"conditions": "aging process, sample: After 6 hours at aging temperature"}, "[10]": {"conditions": "aging process, sample: After distillation"}, "[11]": {"conditions": "aging process, sample: After precipitation"}, "[12]": {"conditions": "aging process, sample: Final dry cake"}}}
{"molecule": "CC(C)(C)NC(=O)N[C@H](C(=O)N1C[C@H]2[C@@H]([C@H]1C(=O)NC(CC1CCC1)C(=O)C(N)=O)C2(C)C)C(C)(C)C", "note": "(stereo partly drawn) [boceprevir, (1R,5S)—N-[3-amino-1-(cyclobutylmethyl)-2,3-dioxopropyl]-3-[2(S)-[[[(1,1-dimethylethyl)amino]carbonyl]amino]-3,3-dimethyl-1-oxobutyl]-6,6-dimethyl-3-azabicyclo[3.1.0]hexan-2(S)-carboxamide]", "values": [{"measurement": "BET specific surface area", "setting": "[1]; Example 2, laboratory scale tee mixer, slurry filtered immediately after precipitation and dried", "result": "about 94 m^2/g"}, {"measurement": "BET specific surface area", "setting": "[1]; Example 6, distillation profile of Table 3", "result": 2.93, "unit": "m^2/g"}, {"measurement": "BET specific surface area", "setting": "[1]; Example 6, distillation profile of Table 11 (25-27.0 °C)", "result": 2.01, "unit": "m^2/g"}, {"measurement": "BET specific surface area", "setting": "[1]; Example 7, drug substance used for the high BET SSA study", "result": 12.06, "unit": "m^2/g"}, {"measurement": "BET specific surface area, powder of FIG. 7A (20 °C) compared to powder of FIG. 7B (50 °C)", "setting": "[1]; Example 8", "result": 10, "unit": "times"}, {"measurement": "BET SSA", "setting": "[1]; [4]", "result": 19.11, "unit": "m^2/g"}, {"measurement": "BET SSA", "setting": "[1]; [5]", "result": 1.82, "unit": "m^2/g"}, {"measurement": "final BET specific surface area as a function of equilibration temperature", "setting": "[1]; Example 9, slurries from -15 °C held at external temperatures of 5 °C and 0 °C, FIG. 8", "result": "lower for the higher equilibration temperature"}, {"measurement": "changes in BET specific surface area on holding at aging temperature", "setting": "[1]; Example 10, aging temperature 14 °C, after 3 hours of holding, FIG. 6", "result": "very small changes"}, {"measurement": "BET specific surface area, effect of slurry composition", "setting": "[1]; Example 12, first slurry (low solvent/high anti-solvent)", "result": "higher drug substance BET specific surface area"}, {"measurement": "BET specific surface area, effect of slurry composition", "setting": "[1]; Example 12, second slurry (high solvent/low anti-solvent)", "result": "lower drug substance BET specific surface area"}, {"measurement": "% Dissolved", "setting": "[2]", "result": "did not consistently meet or exceed a 75% dissolution criterion"}, {"measurement": "bulk and tap density, powder of FIG. 7A (20 °C) compared to powder of FIG. 7B (50 °C)", "setting": "[3]; Example 8", "result": "about 2 times"}, {"measurement": "Bulk Density", "setting": "[3]; [4]", "result": 0.3087, "unit": "g/mL"}, {"measurement": "Tap Density", "setting": "[3]; [4]", "result": 0.4062, "unit": "g/mL"}, {"measurement": "Bulk Density", "setting": "[3]; [5]", "result": 0.1265, "unit": "g/mL"}, {"measurement": "Tap Density", "setting": "[3]; [5]", "result": 0.1898, "unit": "g/mL"}]}
{"molecule": "CC(C)(C)NC(=O)N[C@H](C(=O)N1C[C@H]2[C@@H]([C@H]1C(=O)NC(CC1CCC1)C(=O)C(N)=O)C2(C)C)C(C)(C)C", "note": "(stereo partly shown) [Batch 2]", "values": [{"measurement": "BET SSA", "setting": "[1]; [6]", "result": 7.14, "unit": "m^2/g"}, {"measurement": "BET SSA", "setting": "[1]; [7]", "result": 6.90, "unit": "m^2/g"}, {"measurement": "BET SSA", "setting": "[1]; [8]", "result": 6.88, "unit": "m^2/g"}, {"measurement": "BET SSA", "setting": "[1]; [9]", "result": 7.36, "unit": "m^2/g"}, {"measurement": "BET SSA", "setting": "[1]; [10]", "result": 6.92, "unit": "m^2/g"}, {"measurement": "BET SSA", "setting": "[1]; [11]", "result": 46.94, "unit": "m^2/g"}, {"measurement": "BET SSA", "setting": "[1]; [12]", "result": 7.61, "unit": "m^2/g"}]}
{"molecule": "CC(C)(C)NC(=O)N[C@H](C(=O)N1C[C@H]2[C@@H]([C@H]1C(=O)NC(CC1CCC1)C(=O)C(N)=O)C2(C)C)C(C)(C)C", "note": "(stereo partly shown) [Batch 1]", "values": [{"measurement": "BET SSA", "setting": "[1]; [6]", "result": 9.18, "unit": "m^2/g"}, {"measurement": "BET SSA", "setting": "[1]; [7]", "result": 9.13, "unit": "m^2/g"}, {"measurement": "BET SSA", "setting": "[1]; [8]", "result": 9.05, "unit": "m^2/g"}, {"measurement": "BET SSA", "setting": "[1]; [9]", "result": 9.60, "unit": "m^2/g"}, {"measurement": "BET SSA", "setting": "[1]; [10]", "result": 8.88, "unit": "m^2/g"}, {"measurement": "BET SSA", "setting": "[1]; [11]", "result": 56.70, "unit": "m^2/g"}, {"measurement": "BET SSA", "setting": "[1]; [12]", "result": 9.30, "unit": "m^2/g"}]}
